How the values were obtained:
CDK9/CycT1 = target: T1, CDK9/CycT1 (Homo sapiens, UniProt P50750); assay: CDK9/CycT1 high ATP kinase assay (TR-FRET, Method 1b); type: biochemical; conditions: 2 mM ATP; for IC50: Method 1b; for Selectivity high ATP CDK9 over high ATP CDK2: IC50 (high ATP CDK2)/IC50 (high ATP CDK9): Methods 1b and 2b
T1 construct: Recombinant full-length His-tagged human CDK9 and CycT1; His; purchased Invitrogen PV4131; host or cells: insect cells
Procedure: 1b. CDK9/CycT1 High ATP Kinase Assay
CDK9/CycT1-inhibitory activity of compounds of the present invention at a high ATP concentration after preincubation of enzyme and test compounds was quantified employing the CDK9/CycT1 TR-FRET assay as described in the following paragraphs.
Recombinant full-length His-tagged human CDK9 and CycT1, expressed in insect cells and purified by Ni-NTA affinity chromatography, were purchase from Invitrogen (Cat. No PV4131). As substrate for the kinase reaction biotinylated peptide biotin-Ttds-YISPLKSPYKISEG (C-terminus in amid form) was used which can be purchased e.g. from the company JERINI peptide technologies (Berlin, Germany).
For the assay 50 nl of a 100 fold concentrated solution of the test compound in DMSO was pipetted into a black low volume 384 well microtiter plate (Greiner Bio-One, Frickenhausen, Germany), 2 μl of a solution of CDK9/CycT1 in aqueous assay buffer [50 mM Tris/HCl pH 8.0, 10 mM MgCl2, 1.0 mM dithiothreitol, 0.1 mM sodium ortho-vanadate, 0.01% (v/v) Nonidet-P40 (Sigma)] were added and the mixture was incubated for 15 min at 22° C. to allow pre-binding of the test compounds to the enzyme before the start of the kinase reaction. […] The concentration of CDK9/CycT1 was adjusted depending of the activity of the enzyme lot and was chosen appropriate to have the assay in the linear range, typical concentrations were in the range of 0.5 μg/mL. The reaction was stopped by the addition of 5 μl of a solution of TR-FRET detection reagents (0.2 μM streptavidine-XL665 [Cisbio Bioassays, Codolet, France] and 1 nM anti-RB(pSer807/pSer811)-antibody from BD Pharmingen [#558389] and 1.2 nM LANCE EU-W1024 labeled anti-mouse IgG antibody [Perkin-Elmer, product no. AD0077]) in an aqueous EDTA-solution (100 mM EDTA, 0.2% (w/v) bovine serum albumin in 100 mM HEPES pH 7.5).
The resulting mixture was incubated 1 h at 22° C. to allow the formation of complex between the phosphorylated biotinylated peptide and the detection reagents. Subsequently the amount of phosphorylated substrate was evaluated by measurement of the resonance energy transfer from the Eu-chelate to the streptavidine-XL. Therefore, the fluorescence emissions at 620 nm and 665 nm after excitation at 350 nm was measured in a HTRF reader, e.g. a Rubystar (BMG Labtechnologies, Offenburg, Germany) or a Viewlux (Perkin-Elmer). The ratio of the emissions at 665 nm and at […] was taken as the measure for the amount of phosphorylated substrate. The data were normalised (enzyme reaction without inhibitor=0% inhibition, all other assay components but no enzym=100% inhibition).

CDK2/CycE = target: T2, CDK2/CycE (Homo sapiens, UniProt P24941); assay: CDK2/CycE high ATP kinase assay (TR-FRET, Method 2b); type: biochemical; conditions: 2 mM ATP
T2 construct: GST; purchased ProQinase GmbH (Freiburg, Germany); host or cells: insect cells (Sf9)
Procedure: 2b. CDK2/CycE High ATP Kinase Assay:
CDK2/CycE-inhibitory activity of compounds of the present invention at 2 mM adenosine-tri-phosphate (ATP) was quantified employing the CDK2/CycE TR-FRET (TR-FRET=Time Resolved Fluorescence Resonance Energy Transfer) assay as described in the following paragraphs.
Recombinant fusion proteins of GST and human CDK2 and of GST and human CycE, expressed in insect cells (Sf9) and purified by Glutathion-Sepharose affinity chromatography, were purchase from ProQinase GmbH (Freiburg, Germany). As substrate for the kinase reaction biotinylated peptide biotin-Ttds-YISPLKSPYKISEG (C-terminus in amid form) was used which can be purchased e.g. from the company JERINI peptide technologies (Berlin, Germany).
For the assay 50 nl of a 100 fold concentrated solution of the test compound in DMSO was pipetted into a black low volume 384 well microtiter plate (Greiner Bio-One, Frickenhausen, Germany), 2 μl of a solution of CDK2/CycE in aqueous assay buffer [50 mM Tris/HCl pH 8.0, 10 mM MgCl2, 1.0 mM dithiothreitol, 0.1 mM sodium ortho-vanadate, 0.01% (v/v) Nonidet-P40 (Sigma)] were added and the mixture was incubated for 15 min at 22° C. to allow pre-binding of the test compounds to the enzyme before the start of the kinase reaction. Then the kinase reaction was started by the addition of 3 μl of a solution ATP (3.33 mM=>final conc. in the 5 μl assay volume is 2 mM) and substrate (1.25 μM=>final conc. in the 5 μl assay volume is 0.75 μM) in assay buffer and the resulting mixture was incubated for a reaction time of 25 min at 22° C. The concentration of CDK2/CycE was adjusted depending of the activity of the enzyme lot and was chosen appropriate to have the assay in the linear range, typical concentrations were in the range of 15 ng/ml. The reaction was stopped by the addition of 5 μl of a solution of TR-FRET detection reagents (0.2 μM streptavidine-XL665 [Cisbio Bioassays, Codolet, France] and 1 nM anti-RB(pSer807/pSer811)-antibody from BD Pharmingen [#558389] and 1.2 nM LANCE EU-W1024 labeled anti-mouse IgG antibody [Perkin-Elmer, product no. AD0077, as an alternative a Terbium-cryptate-labeled anti-mouse IgG antibody from Cisbio Bioassays can be used]) in an aqueous EDTA-solution (100 mM EDTA, 0.2% (w/v) bovine serum albumin in 100 mM HEPES pH 7.5).
The resulting mixture was incubated 1 h at 22° C. to allow the formation of complex between the phosphorylated biotinylated peptide and the detection reagents. Subsequently the amount of phosphorylated substrate was evaluated by measurement of the resonance energy transfer from the Eu-chelate to the streptavidine-XL. Therefore, the fluorescence emissions at 620 nm and 665 nm after excitation at 350 nm were measured in a TR-FRET reader, e.g. a Rubystar (BMG Labtechnologies, Offenburg, Germany) or a Viewlux (Perkin-Elmer). The ratio of the emissions at 665 nm and at […] was taken as the measure for the amount of phosphorylated substrate. The data were normalised (enzyme reaction without inhibitor=0% inhibition, all other assay components but no enzym=100% inhibition).

T1 sequence (P50750 whole entry): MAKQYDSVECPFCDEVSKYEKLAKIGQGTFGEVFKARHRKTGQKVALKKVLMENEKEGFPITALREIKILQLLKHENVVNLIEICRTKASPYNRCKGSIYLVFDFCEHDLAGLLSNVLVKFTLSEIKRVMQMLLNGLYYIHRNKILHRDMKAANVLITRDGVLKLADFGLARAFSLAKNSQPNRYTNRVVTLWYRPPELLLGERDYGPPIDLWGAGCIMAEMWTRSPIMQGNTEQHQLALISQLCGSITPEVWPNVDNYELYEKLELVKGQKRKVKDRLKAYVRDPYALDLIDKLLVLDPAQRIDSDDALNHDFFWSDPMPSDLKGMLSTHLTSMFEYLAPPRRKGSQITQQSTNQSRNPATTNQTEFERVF
T1 sequence (O60563 whole entry partner): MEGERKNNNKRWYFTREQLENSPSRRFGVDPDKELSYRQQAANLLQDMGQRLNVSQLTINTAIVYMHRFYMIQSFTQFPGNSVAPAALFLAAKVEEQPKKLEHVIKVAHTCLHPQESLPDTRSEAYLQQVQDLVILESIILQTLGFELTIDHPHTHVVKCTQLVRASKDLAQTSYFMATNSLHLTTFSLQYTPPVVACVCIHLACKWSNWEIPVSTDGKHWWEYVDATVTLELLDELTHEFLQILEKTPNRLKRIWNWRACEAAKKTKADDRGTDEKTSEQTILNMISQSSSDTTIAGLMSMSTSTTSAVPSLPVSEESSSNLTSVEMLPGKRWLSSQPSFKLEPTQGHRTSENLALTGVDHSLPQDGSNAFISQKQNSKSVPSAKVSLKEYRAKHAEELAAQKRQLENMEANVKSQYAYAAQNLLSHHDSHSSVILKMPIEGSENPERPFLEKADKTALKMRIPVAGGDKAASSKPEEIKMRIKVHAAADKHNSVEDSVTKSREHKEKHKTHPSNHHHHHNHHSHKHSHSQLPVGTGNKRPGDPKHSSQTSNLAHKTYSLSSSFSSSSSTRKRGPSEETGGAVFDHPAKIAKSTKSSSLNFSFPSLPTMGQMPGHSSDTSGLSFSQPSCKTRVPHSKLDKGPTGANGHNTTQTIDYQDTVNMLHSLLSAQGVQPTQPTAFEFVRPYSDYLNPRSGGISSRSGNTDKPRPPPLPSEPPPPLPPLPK

Compound	IC50 (CDK9/CycT1)	Selectivity high ATP CDK9 over high ATP CDK2: IC50 (high ATP CDK2)/IC50 (high ATP CDK9) (CDK9/CycT1)	IC50 (CDK2/CycE)
CC(C)(C)OC(=O)N=S(C)(=O)Cc1cc2cc(c1)OCCCNc1cc(F)ccc1-c1nc(ncc1F)N2 (racemic) [Example 13, (rac)-tert-butyl[{[15,19-difluoro-1,2,3,4-tetrahydro-16,12-(azeno)-6,10-(metheno)-5,1,11,13-benzoxatriazacyclooctadecin-8(11H)-yl]methyl}(methyl)oxido-λ^6-sulfanylidene]carbamate]	3 nM	426	1280 nM
C[S+]([O-])Cc1cc2nc(c1)OCCCCCc1cc(F)ccc1-c1cc(ncc1F)N2 (racemic) [Example 19, (rac)-2,19-difluoro-9-[(methylsulfinyl)methyl]-14,15,16,17-tetrahydro-6H,13H-7,11-(azeno)-5,1-(metheno)-12,4,6-benzoxadiazacyclononadecine]	17 nM	82.9	1410 nM
CN1CCCCOc2cc(F)ccc2-c2nc(ncc2F)Nc2cc(CS(C)(=N)=O)cc1c2 (racemic) [Example 23, (rac)-16,20-difluoro-6-methyl-9-[(S-methylsulfonimidoyl)methyl]-3,4,5,6-tetrahydro-2H,12H-13,17-(azeno)-11,7-(metheno)-1,6,12,14-benzoxatriazacyclononadecine]	2.1 nM	629	1320 nM
CS(=N)(=O)Cc1cc2cc(c1)OCCCNc1cc(F)ccc1-c1nc(ncc1F)N2 (racemic) [Example 14, rac-15,19-difluoro-8-[(S-methylsulfonimidoyl)methyl]-1,2,3,4-tetrahydro-16,12-(azeno)-6,10-(metheno)-5,1,11,13-benzoxatriazacyclooctadecine]	1 nM	94	94 nM
CSCc1cc2nc(c1)OCCCCc1cc(F)ccc1-c1cc(ncc1F)N2 [Example 4, 2,18-Difluoro-9-[(methylsulfanyl)methyl]-13,14,15,16-tetrahydro-6H-7,11-(azeno)-5,1-(metheno)-12,4,6-benzoxadiazacyclooctadecine]	323 nM	>61.9	> 20000 nM
CN1CCCCNc2cc(F)ccc2-c2nc(ncc2F)Nc2cc(CS(C)(=N)=O)cc1c2.O=CO (racemic) [Example 17, (rac)-16,20-difluoro-6-methyl-9-[(S-methylsulfonimidoyl)methyl]-1,2,3,4,5,6-hexahydro-12H-17,13-(azeno)-11,7-(metheno)-1,6,12,14-benzotetraazacyclononadecine; salt with formic acid]	2.2 nM	283	622 nM
CSCc1cc2nc(c1F)N(C)CCCCOc1cc(F)ccc1-c1cc(ncc1F)N2 [Example 12, 8,16,20-trifluoro-6-methyl-9-[(methylsulfanyl)methyl]-3,4,5,6-tetrahydro-2H,12H-11,7-(azeno)-13,17-(metheno)-1,6,12,14-benzoxatriazacyclononadecine]	10 nM		

Continued, values first:

IC50 (CDK9/CycT1)	Selectivity high ATP CDK9 over high ATP CDK2: IC50 (high ATP CDK2)/IC50 (high ATP CDK9) (CDK9/CycT1)	IC50 (CDK2/CycE)	Compound
2.6 nM	31	80 nM	CN1CCCCOc2cc(F)ccc2-c2cc(ncc2F)Nc2cc(CS(C)(=N)=O)cc1n2 (racemic) [Example 11, (rac)-16,20-difluoro-6-methyl-9-[(S-methylsulfonimidoyl)methyl]-3,4,5,6-tetrahydro-2H-7,11-(azeno)-17,13-(metheno)-1,6,12,14-benzoxatriazacyclononadecine]
3.8 nM	140	531 nM	CSCc1cc2nc(c1)Nc1cc(c(F)cn1)-c1ccc(F)cc1OCCCN2 [Example 1, 15,19-Difluoro-8-[(methylsulfanyl)methyl]-2,3,4,5-tetrahydro-11H-10,6-(azeno)-12,16-(metheno)-1,5,11,13-benzoxatriazacyclooctadecine]
6.8 nM	37.2	253 nM	CC(C)(C)OC(=O)N=S(C)(=O)Cc1cc2nc(c1)Nc1cc(c(F)cn1)-c1ccc(F)cc1OCCCCCN2 (racemic) [Example 9, (rac)-tert-butyl[{[17,21-difluoro-2,3,4,5,6,7-hexahydro-13H-12,8-(azeno)-14,18-(metheno)-1,7,13,15-benzoxatriazacycloicosin-10-yl]methyl}(methyl)oxido-λ^6-sulfanylidene]carbamate]
1.5 nM	151	227 nM	CS(=N)(=O)Cc1cc2cc(c1)OCCCCNc1cc(F)ccc1-c1nc(ncc1F)N2 (racemic) [Example 16, (rac)-16,20-difluoro-9-[(S-methylsulfonimidoyl)methyl]-2,3,4,5-tetrahydro-1H-17,13-(azeno)-7,11-(metheno)-6,1,12,14-benzoxatriazacyclononadecine]
3.9 nM	167	650 nM	CS(=N)(=O)Cc1cc2nc(c1)Nc1cc(c(F)cn1)-c1ccc(F)cc1OCCCCN2 (racemic) [Example 3, (rac)-16,20-Difluoro-9-[(S-methylsulfonimidoyl)methyl]-3,4,5,6-tetrahydro-2H,12H-11,7-(azeno)-13,17-(metheno)-1,6,12,14-benzoxatriazacyclononadecine]
1 nM	102	102 nM	CS(=N)(=O)Cc1cc2nc(c1)Nc1cc(c(F)cn1)-c1ccc(F)cc1OCCCCCN2 (racemic) [Example 10, (rac)-17,21-difluoro-10-[(S-methylsulfonimidoyl)methyl]-2,3,4,5,6,7-hexahydro-13H-12,8-(azeno)-14,18-(metheno)-1,7,13,15-benzoxatriazacycloicosine]
